The target of data set [1] is T1, beta-galactosidase (Escherichia coli, UniProt P00722).
T1 construct: gene lacZ
Nature of the data set: product-feedback inhibition of ONPG hydrolysis, absorbance at […] nm. It counts as biochemical.

For data set [2], the target named is T1, beta-galactosidase. Nature of the data set: ONPG hydrolysis absorbance assay at […] nm, Lineweaver-Burk. Format: biochemical.
Data set [3] has as its target T1, beta-galactosidase. Nature of the data set: hydrolysis kinetics (Km), absorbance of 2-nitrophenol at […] nm. Format: biochemical.
Substrate in data set [4]: CCO
Nature of the data set: ethanol oxidation kinetics (Km), NADH absorbance, Lineweaver-Burk. Format: biochemical, Saccharomyces cerevisiae. To be noted: NAD+ binds the E-NAD complex (ordered Bi-Bi).

T1 sequence (P00722 2-1024): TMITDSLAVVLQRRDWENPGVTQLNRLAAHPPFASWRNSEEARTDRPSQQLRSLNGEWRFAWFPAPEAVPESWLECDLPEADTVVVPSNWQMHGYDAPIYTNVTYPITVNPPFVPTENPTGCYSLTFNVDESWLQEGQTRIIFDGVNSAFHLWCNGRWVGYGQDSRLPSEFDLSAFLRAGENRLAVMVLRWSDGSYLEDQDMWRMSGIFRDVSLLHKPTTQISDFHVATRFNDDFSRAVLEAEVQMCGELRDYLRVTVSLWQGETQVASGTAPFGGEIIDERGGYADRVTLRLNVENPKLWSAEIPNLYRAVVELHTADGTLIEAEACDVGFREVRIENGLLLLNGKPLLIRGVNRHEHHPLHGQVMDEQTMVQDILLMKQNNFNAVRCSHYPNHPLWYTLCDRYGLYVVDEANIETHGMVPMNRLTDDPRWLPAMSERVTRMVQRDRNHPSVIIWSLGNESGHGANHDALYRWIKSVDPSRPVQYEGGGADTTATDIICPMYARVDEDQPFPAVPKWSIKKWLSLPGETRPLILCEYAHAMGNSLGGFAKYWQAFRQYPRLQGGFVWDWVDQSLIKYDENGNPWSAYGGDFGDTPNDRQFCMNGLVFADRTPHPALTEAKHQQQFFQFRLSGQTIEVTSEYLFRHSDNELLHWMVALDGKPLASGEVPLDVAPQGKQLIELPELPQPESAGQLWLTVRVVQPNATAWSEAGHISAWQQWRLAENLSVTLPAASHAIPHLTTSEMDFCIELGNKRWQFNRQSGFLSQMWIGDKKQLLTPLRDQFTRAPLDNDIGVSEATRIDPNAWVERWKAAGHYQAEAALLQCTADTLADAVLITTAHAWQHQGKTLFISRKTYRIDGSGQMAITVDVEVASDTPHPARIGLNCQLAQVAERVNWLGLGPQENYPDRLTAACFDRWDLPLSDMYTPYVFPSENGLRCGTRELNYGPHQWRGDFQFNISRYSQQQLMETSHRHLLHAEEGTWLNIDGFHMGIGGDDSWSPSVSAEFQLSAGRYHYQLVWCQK

`OC[C@H]1OC(O)[C@H](O)[C@@H](O)[C@H]1O` (stereo partly shown) [Gal, galactose] had a Ki on beta-galactosidase [1] of 13.7 mM. For the molecule `OC[C@H]1O[C@@H](SCCc2ccccc2)[C@H](O)[C@@H](O)[C@H]1O` [PETG, phenylethyl beta-D-thiogalactopyranoside], at beta-galactosidase [2], the affinity corresponds to a Ki of 0.00233 mM. Consider `O=[N+]([O-])c1ccccc1O[C@@H]1O[C@H](CO)[C@H](O)[C@H](O)[C@H]1O` [ONPG, o-nitrophenyl-β-D-galactopyranoside], for which, on beta-galactosidase [3], the Km worked out at 167 µM.

B1: alcohol dehydrogenase (Saccharomyces cerevisiae S288C) (protein)
chain: SIPETQKGVIFYESHGKLEYKDIPVPKPKANELLINVKYSGVCHTDLHAWHGDWPLPVKLPLVGGHEGAGVVVGMGENVKGWKIGDYAGIKWLNGSCMACEYCELGNESNCPHADLSGYTHDGSFQQYATADAVQAAHIPQGTDLAQVAPILCAGITVYKALKSANLMAGHWVAISGAAGGLGSLAVQYAKAMGYRVLGIDGGEGKEELFRSIGGEVFIDFTKEKDIVGAVLKATDGGAHGVINVSVSEAAIEASTRYVRANGTTVLVGMPAGAKCCSDVFNQVVKSISIVGSYVGNRADTREALDFFARGLVKSPIKVVGLSTLPEIYEKMEKGQIVGRYVVDTSK
notes: yeast alcohol dehydrogenase (cat# A7011)
On to B1, for which the Km in data set [4] worked out at 14300 µM.

For the origin of these results see publication PMC9554301, “Rapid modeling of experimental molecular kinetics with simple electronic circuits instead of with complex differential equations” (Frontiers in Bioengineering and Biotechnology, 2022).
